Source: patent publication US12448369B2 (Edgewise Therapeutics, Inc., priority 2023, dated 2025)

What was measured:
[1] = molecular target: T1, Porcine ventricle myofibrils (ventricular myosin ATPase) (Sus scrofa, UniProt P79293); test: Myofibril ATPase assay, porcine ventricle myofibrils; format: biochemical, porcine (Yucatan minipigs); details: porcine ventricle myofibrils
T1 construct: Myofibrils from porcine cardiac muscle was isolated from the left ventricle of Yucatan minipigs; tissue Exemplar Genetics; host or cells: left ventricle of Yucatan minipigs, myofibrils prepared in house
Summary of the method: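 In a coupled enzyme format, ADP from myofibril ATPase drives NADH oxidation, monitored kinetically at 340 nm for 75 min using minipig ventricle myofibrils. Effective concentrations giving 25% loss or gain of activity relative to vehicle were calculated from 4-parameter fits.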

[2] = test system: Rabbit Psoas myofibrils (skeletal myosin ATPase); test: Myofibril ATPase assay, rabbit psoas (skeletal) myofibrils; format: biochemical; details: rabbit psoas myofibrils
Summary of the method: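 ATPase activity of Triton-washed myofibrils was measured by PK/LDH coupling, following NADH loss at 340 nm every 1.5–2 min for 75 min in PIPES/Ca/EGTA buffer at pH 7.0. Slopes, normalized to vehicle (100%), were fitted to a 4-parameter logistic model. Values are Y75 (25% inhibition) or Y125 (activators).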

[3] = test system: Porcine atria myofibrils (atrial myosin ATPase); test: Myofibril ATPase assay, porcine atria myofibrils; format: biochemical; details: porcine atria myofibrils
Summary of the method: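 Porcine atrial myofibrils were tested in a PK/LDH-coupled system where ADP from myosin ATPase drives NADH oxidation. Absorbance at 340 nm was read every 1.5-2 min for 75 min and slopes were normalized to vehicle wells. A 4-parameter logistic fit gave Y75 (25% inhibition) or Y125 (activation) concentrations.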

[4] = Y75 value (75% activity relative to no compound)

T1 sequence (P79293 whole entry): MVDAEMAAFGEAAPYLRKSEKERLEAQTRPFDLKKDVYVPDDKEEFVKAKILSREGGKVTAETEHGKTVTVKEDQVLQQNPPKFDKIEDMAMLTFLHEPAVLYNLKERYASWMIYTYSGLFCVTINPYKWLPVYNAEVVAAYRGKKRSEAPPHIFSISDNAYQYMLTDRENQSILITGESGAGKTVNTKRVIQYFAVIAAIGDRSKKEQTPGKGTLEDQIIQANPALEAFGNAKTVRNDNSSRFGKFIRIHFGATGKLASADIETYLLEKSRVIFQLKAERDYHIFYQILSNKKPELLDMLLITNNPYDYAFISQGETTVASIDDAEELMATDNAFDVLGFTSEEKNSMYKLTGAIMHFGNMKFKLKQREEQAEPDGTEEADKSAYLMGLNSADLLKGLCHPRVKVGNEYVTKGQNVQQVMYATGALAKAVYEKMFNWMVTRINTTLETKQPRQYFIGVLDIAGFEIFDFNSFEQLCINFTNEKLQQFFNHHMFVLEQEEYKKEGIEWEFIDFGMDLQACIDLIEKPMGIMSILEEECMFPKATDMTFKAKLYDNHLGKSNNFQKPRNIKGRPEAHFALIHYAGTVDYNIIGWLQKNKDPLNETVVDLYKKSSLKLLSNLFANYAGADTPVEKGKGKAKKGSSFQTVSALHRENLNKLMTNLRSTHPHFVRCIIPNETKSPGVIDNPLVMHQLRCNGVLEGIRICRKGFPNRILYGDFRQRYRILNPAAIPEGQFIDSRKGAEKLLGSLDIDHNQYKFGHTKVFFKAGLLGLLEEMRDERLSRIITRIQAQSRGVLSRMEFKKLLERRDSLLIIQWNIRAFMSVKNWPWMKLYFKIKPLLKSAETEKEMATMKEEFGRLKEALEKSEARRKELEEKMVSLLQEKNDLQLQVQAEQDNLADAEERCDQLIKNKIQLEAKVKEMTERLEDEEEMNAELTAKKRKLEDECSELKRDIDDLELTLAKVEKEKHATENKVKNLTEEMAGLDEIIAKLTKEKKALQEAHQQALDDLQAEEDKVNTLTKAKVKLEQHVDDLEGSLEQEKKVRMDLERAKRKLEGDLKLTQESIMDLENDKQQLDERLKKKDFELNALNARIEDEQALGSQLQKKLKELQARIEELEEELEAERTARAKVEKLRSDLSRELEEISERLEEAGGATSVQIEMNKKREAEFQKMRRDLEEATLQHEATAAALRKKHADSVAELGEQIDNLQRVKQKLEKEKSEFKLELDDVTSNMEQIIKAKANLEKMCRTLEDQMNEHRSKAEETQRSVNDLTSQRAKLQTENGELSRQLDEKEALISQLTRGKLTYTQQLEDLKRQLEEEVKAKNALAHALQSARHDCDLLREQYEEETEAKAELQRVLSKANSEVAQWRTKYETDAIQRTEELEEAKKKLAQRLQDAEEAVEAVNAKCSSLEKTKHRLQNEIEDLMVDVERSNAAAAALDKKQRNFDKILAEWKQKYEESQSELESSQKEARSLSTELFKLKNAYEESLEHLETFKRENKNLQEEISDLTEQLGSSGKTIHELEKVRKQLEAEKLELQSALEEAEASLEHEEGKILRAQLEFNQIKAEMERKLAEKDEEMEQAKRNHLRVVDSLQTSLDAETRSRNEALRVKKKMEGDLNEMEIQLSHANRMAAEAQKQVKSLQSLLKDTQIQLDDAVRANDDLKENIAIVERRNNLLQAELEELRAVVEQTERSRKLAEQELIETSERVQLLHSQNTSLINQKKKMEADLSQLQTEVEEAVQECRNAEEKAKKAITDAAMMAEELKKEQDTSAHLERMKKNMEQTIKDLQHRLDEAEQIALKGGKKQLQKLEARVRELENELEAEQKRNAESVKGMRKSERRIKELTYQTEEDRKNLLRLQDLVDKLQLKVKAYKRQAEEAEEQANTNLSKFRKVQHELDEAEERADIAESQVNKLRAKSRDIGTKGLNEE

SMILES | Ventricular EC25 ([1]; Y75 value (no ‡ mark)) | Skeletal EC25 ([2]; Y75 value (no ‡ mark)) | Atrial EC25 ([3]; Y75 value (no ‡ mark)) | Ventricular EC25 ([1]; Y75 value) | Skeletal EC25 ([2]; Y75 value) | Atrial EC25 [3, 4]
CC(C(=O)N[C@@H](C)c1ccc(F)cc1F)c1cc2ccccc2[nH]c1=O (stereo partly drawn) [compound 134] | 100.00 µM | 7.99 µM | 100.00 µM | – | – | –
Cc1c(C2(C(=O)N[C@@H](C)c3ncc(C#N)cc3F)CC2)c(=O)[nH]c2cccc(C#N)c12 (single isomer, unassigned) [compound 2542] | 0.40 µM | 0.32 µM | 0.24 µM | – | – | –
CC(NC(=O)C(F)(F)c1cc2cc(F)ccc2[nH]c1=O)c1cc(C#N)ccn1 (single isomer, unassigned) [Compound 2573] | 100.00 µM | 100.00 µM | 100.00 µM | – | – | –
C[C@H](NC(=O)Cc1cc2c(F)c(F)ccc2[nH]c1=O)c1ncc(F)cc1F [compound 34] | 0.05 µM | 0.02 µM | 0.02 µM | – | – | –
Cc1nc(C#N)cnc1[C@@H](C)NC(=O)C1(c2cc3c(F)c(F)ccc3[nH]c2=O)CC1 (single isomer, unassigned) [compound 4825] | 100.00 µM | 100.00 µM | 0.43 µM | – | – | –
C[C@H](NC(=O)[C@H](C)c1cc2cnccc2[nH]c1=O)c1ccc(F)cc1F (single isomer, unassigned) [compound 443] | – | – | – | 100.00 µM | 1.34 µM | 100.00 µM
Cc1c(CC(=O)N[C@@H](C)c2ccc(C#N)nn2)c(=O)[nH]c2ccc(F)c(C3CC3)c12 (single isomer, unassigned) [compound 2058] | 68.08 µM | 3.15 µM | 100.00 µM | – | – | –
N#Cc1ccc([C@@H](CO)NC(=O)Cc2c(C3CC3)c3cc(F)ccc3[nH]c2=O)c(F)c1 [compound 75] | 0.61 µM | 15.21 µM | 59.37 µM | – | – | –
COc1nccc2[nH]c(=O)c([C@H](C)C(=O)N[C@@H](C)c3ccc(F)cc3F)c(C(F)(F)F)c12 (single isomer, unassigned) [compound 424] | – | – | – | 17.24 µM | 4.49 µM | 1.91 µM
Cc1c(C(F)(F)C(=O)N[C@H](C)c2ccc(F)cc2F)c(=O)[nH]c2ccc(F)cc12 [compound 4815] | 100.00 µM | 1.04 µM | 1.05 µM | – | – | –
CCOc1nccc2[nH]c(=O)c(CC(=O)N[C@@H](C)c3ccc(F)cc3F)c(C(F)(F)F)c12 [compound 422] | – | – | – | 100.00 µM | 0.03 µM | 100.00 µM
O=C(Cc1cc2c(F)c(F)ccc2[nH]c1=O)N1CC2CC1c1ccccc12 (stereo not drawn) [compound 4504] | 0.47 µM | 0.30 µM | 0.92 µM | – | – | –
Cc1c(CC(=O)N[C@H](C)c2ccc(C#N)cn2)c(=O)[nH]c2cc(F)c(F)cc12 [compound 1112] | 2.09 µM | 3.86 µM | 5.01 µM | – | – | –
CC(C(=O)N[C@@H](C)c1ccc(F)cc1F)c1cc2c(I)nccc2[nH]c1=O (stereo partly drawn) [compound 362] | – | – | – | 100.00 µM | 0.40 µM | 9.38 µM
Cc1ccc2[nH]c(=O)c(CC(=O)N[C@@H](C)c3ncc(C#N)cc3F)c(C)c2n1 [compound 469] | – | – | – | 1.66 µM | 0.55 µM | 0.15 µM
COc1ncc2[nH]c(=O)c(CC(=O)N[C@@H](C)c3ccc(F)cc3F)cc2n1 [compound 497] | – | – | – | 100 µM | 100 µM | 73.3 µM
Cc1c(O)ccc2[nH]c(=O)c(CC(=O)N[C@H](C)c3ncc(F)cc3F)cc12 (single isomer, unassigned) [compound 77] | 100.00 µM | 47.84 µM | 100.00 µM | – | – | –
Cc1nc(C#N)cnc1[C@@H](C)NC(=O)Cc1c(C)c2nc(C(F)(F)F)ccc2[nH]c1=O (single isomer, unassigned) [compound 138] | – | – | – | 1.17 µM | 2.85 µM | 0.35 µM
C[C@@H](NC(=O)Cc1cc2ccc(F)cc2[nH]c1=O)c1ncc(C#N)cn1 (single isomer, unassigned) [compound 2033] | 100.00 µM | 24.12 µM | 100.00 µM | – | – | –
Cc1c(F)ccc2[nH]c(=O)c(C(F)(F)C(=O)N[C@@H](C)c3ncc(C#N)cc3F)c(C)c12 (single isomer, unassigned) [compound 4812] | 0.18 µM | 0.05 µM | 0.19 µM | – | – | –
Cc1c(C2(C(=O)N[C@H](C)c3ncc(C#N)cc3F)CC2)c(=O)[nH]c2ccc(F)cc12 (single isomer, unassigned) [compound 2596] | 0.55 µM | 0.16 µM | 0.11 µM | – | – | –
Cc1c(C(F)(F)C(=O)N[C@H](C)c2ncc(C#N)cc2F)c(=O)[nH]c2cccc(F)c12 (single isomer, unassigned) [compound 2538] | 0.18 µM | 0.11 µM | 0.17 µM | – | – | –
C[C@H](NC(=O)[C@@H](C)c1cc2c(C3CC3)nccc2[nH]c1=O)c1ccc(F)cc1F (single isomer, unassigned) [compound 356] | – | – | – | 100.00 µM | 157.50 µM | 100.00 µM

Other lines, results leading:

Ventricular EC25 ([1]; Y75 value (no ‡ mark)) | Skeletal EC25 ([2]; Y75 value (no ‡ mark)) | Atrial EC25 ([3]; Y75 value (no ‡ mark)) | Ventricular EC25 ([1]; Y75 value) | Skeletal EC25 ([2]; Y75 value) | Atrial EC25 [3, 4] | SMILES
1.50 µM | 100.00 µM | 1.18 µM | – | – | – | Cc1c(CC(=O)N[C@H](C)c2ncc(C#N)cn2)c(=O)[nH]c2cccc(F)c12 (single isomer, unassigned) [compound 2041]
– | – | – | 0.31 µM | 0.08 µM | 0.15 µM | Cc1c(C(F)(F)C(=O)N[C@H](CO)c2ncc(C#N)cc2F)c(=O)[nH]c2ccnc(C#N)c12 (single isomer, unassigned) [compound 3502]
– | – | – | 100.00 µM | 33.76 µM | 2.40 µM | Cc1c(CC(=O)N[C@@H](CO)c2ncc(F)cc2F)c(=O)[nH]c2ccc(C#N)nc12 [compound 260]
– | – | – | 45.66 µM | 2.27 µM | 1.12 µM | Cc1c(CC(=O)N[C@@H](CO)c2ccc(C#N)cc2F)c(=O)[nH]c2ccc(C#N)nc12 [compound 221]
– | – | – | 100.00 µM | 100.00 µM | 100.00 µM | Cc1nccc2[nH]c(=O)c(CC(=O)N[C@@H](C)c3ccncc3)c(C)c12 (single isomer, unassigned) [compound 334]
– | – | – | 33.12 µM | 65.26 µM | 5.84 µM | Cc1nc([C@@H](C)NC(=O)Cc2c(C)c3c(C)nccc3[nH]c2=O)ncc1C#N [compound 478]
– | – | – | 100.00 µM | 40.83 µM | 100.00 µM | Cc1nccc2[nH]c(=O)c(CC(=O)N[C@H](CO)c3ncc(F)cc3F)c(C)c12 (single isomer, unassigned) [compound 303]
3.02 µM | 0.26 µM | 0.45 µM | – | – | – | Cc1c(CC(=O)N[C@@H](C)c2ncc(C#N)cn2)c(=O)[nH]c2ccc(F)c(C3CC3)c12 (single isomer, unassigned) [compound 2060]
– | – | – | 100.00 µM | 100.00 µM | 100.00 µM | Cc1nccc2[nH]c(=O)c(CC(=O)N[C@@H](C)c3cccc(O)c3)c(C)c12 (single isomer, unassigned) [compound 331]
– | – | – | 100.00 µM | 100.00 µM | 100.00 µM | Cc1nccc2[nH]c(=O)c(CC(=O)NC(CO)c3ncccc3F)c(C)c12 (stereo not drawn) [compound 237]
– | – | – | 9.24 µM | 0.67 µM | 3.29 µM | Cc1ccccc1[C@H](C)NC(=O)Cc1c(C)c2c(C)nccc2[nH]c1=O (single isomer, unassigned) [compound 327]
– | – | – | 100.00 µM | 27.39 µM | 8.69 µM | Cc1ccccc1[C@H](CO)NC(=O)Cc1c(C)c2c(C)nccc2[nH]c1=O (single isomer, unassigned) [compound 338]
– | – | – | 62.33 µM | 5.80 µM | 4.94 µM | Cc1nccc2[nH]c(=O)c(C(F)(F)C(=O)N[C@H](C)c3ncc(C#N)cc3F)c(C)c12 (single isomer, unassigned) [compound 3513]
– | – | – | 100.00 µM | 100.00 µM | 100.00 µM | Cc1c(CC(=O)N[C@H](C)c2ncc(F)cc2F)c(=O)[nH]c2ccc(C#N)nc12 (single isomer, unassigned) [compound 249]
– | – | – | 2.74 µM | 0.02 µM | 0.47 µM | Cc1c(CC(=O)N[C@@H](CO)c2ccc(F)cc2F)c(=O)[nH]c2ccnc(C(F)(F)F)c12 [compound 232]
